Data set [1] relates to panel of tumor cell lines. The following applies: cited from earlier work.
In data set [2] the test system is RSV. Description: RSV antiviral assay (Renilla luciferase reporter virus rA2-Rluc in A549 cells). The following applies: for EC50 / IC50: human respiratory syncytial virus; for EC50: A549, read-out: EC50 against RSV (Table S12); for Selectivity Index: Selectivity index = CC50/IC50. The class given is cell-based, respiratory syncytial virus. How it is done: A549 (CCL-185, ATCC) cells were seeded at 1.6 × 10^4 cells in 100 μL of 5% FBS/1X penicillin–streptomycin/F12 medium per well in 96-well µClear® black plates with a clear bottom (Greiner 655090). The cells were infected with 400 PFU/well of a recombinant RSV encoding Renilla luciferase as an additional transcription unit (rA2-Rluc) in a total volume of 50 µL/well and allowed to adsorb for 1 h. Purified compounds were serially diluted two-fold in triplicate and 50 µL/well of the diluted extracts were added to the infected cells. After further incubation at 37 °C and 5% CO2 for 24 h, the supernatants were removed and cells were lysed using Renilla lysis buffer (Promega). Luciferase activity was measured with the Renilla Luciferase reagent (Promega) and BioTek Synergy Mx microplate luminometer using Gen5 version 2.00.18 software. The RSV antiviral effect for the test samples was determined by normalizing to the DMSO-treated control samples and multiplying by 100 to obtain the percent of control. Statistical analysis was performed using GraphPad Prism software version 9.4.1.

A short description of data set [3]: Cytotoxicity assay (MTT) in uninfected A549 cells. The class given is cell-based. The settings on record: human, means ± SEM of triplicate samples. The procedure: To test for cell viability, duplicate 96-well plates of uninfected A549 cells were set up in parallel with the RSV antiviral assay. Extracts were diluted and used to treat cells as described above for the RSV antiviral assay. The negative control for cytotoxicity was 2% DMSO while the positive was 2 μM (final concentration) of PDKI inhibitor. After the 24 h incubation period, the cells were processed for an MTT Proliferation Assay (Provost and […] Research) according to the manufacturer's protocol. Absorbance at 570 nm was measured by a microplate luminometer and standardized to control as above. Two percent DMSO and 2 μM PDK1 inhibitor (CalBioChem) were used as negative and positive controls for cell death, respectively. Statistical analysis was performed using GraphPad Prism software version 9.4.1.

In data set [4] the test system is Candida strains. The data set is described as follows: Antifungal screen. The class given is cell-based. The following applies: several Candida strains.
The test system of data set [5] is ESKAPE pathogens. The data set is described as follows: Antibacterial screen. The format is cell-based.
Data set [6] is described as follows: Stability in solution (NMR / reversed-phase HPLC observation). The format is physicochemical. The following applies: CDCl3, NMR solvent. The procedure:
While NMR data were collected on purified suberitenone I (6), the signals decreased in intensity while those of a new species grew in intensity. […] Thus, suberitenone J (7) is the oxaspiro-ring-opened isomer, existing in equilibrium with 6. When the two were separated by reversed-phase HPLC, both reverted to an equilibrium mixture of ~3:1 6:7 over 24 h.

Data set [7] relates to HIV gene expression. More on the design: method as in PMID 27768313. The settings on record: cited from earlier work.
Data set [8] deals with MRSA. The arrangement: method as in doi:10.1021/jo00128a034, PMID 15104501, doi:10.1016/j.tetlet.2004.04.091, doi:10.1016/j.tetlet.2018.07.055. The settings on record: cited from earlier work.
[9] abbreviates: A549, 24 h, read-out: IC50 (RSV antiviral).
Setting [10] is: A549, read-out: IC50 (RSV antiviral, text).

Like-named read-outs stand apart in the source and are kept apart here. Some results are limits rather than exact numbers.

Consider eleven molecules from PMC9964336, “Neosuberitenone, a New Sesterterpenoid Carbon Skeleton; New Suberitenones; and Bioactivity against Respiratory Syncytial Virus, from the Antarctic Sponge Suberites sp” (Marine Drugs, 2023).

Broadly, the EC50 is the concentration at which the effect is half-maximal. For orientation: CC50 means the concentration at which the toxic effect on the cells reaches its halfway point. A low value points to greater toxicity to the cells. One may read the IC50 as the concentration at which inhibition is half-maximal.

Consider 19-episuberitenone B, for which the “cytotoxicity against a panel of tumor cell lines” value in data set [1] is given as “weak cytotoxicity”.

As for `CC(=O)OC1CC2(C)C=C3C4CC(=O)C(C)(CC4O)C3CC2C2(C)CCCC(C)(C)C12` (stereo not drawn) [Compound 1, Neosuberitenone A], the viral inhibitory effects entry in data set [2] (at 25 µg/mL) was “did not show any viral inhibitory effects”. The concentration giving a half-maximal response (EC50) in data set [2] is more than 50 µM.

For the molecule `CC(=O)OC1CC2(C)C(CCC3(C4CC(=O)C(C)=CC4O)OC23)C2(C)CCCC(C)(C)C12` (stereo not drawn) [Compound 2, Suberitenone E], the CC50 at 24 h in data set [3] worked out at 87.3 ± 38.1 µM. Further, in data set [2], the “Selectivity Index” value turned out to be 4.3 and the 50% effective concentration (EC50) was 20.5 µM. Moreover, the IC50 in data set [2] (setting [9]) was 20.5 ± 0.7 µM.

On to `CC(=O)OC1CC2(C)C(O)C(C3CC(=O)C(C)=CC3O)=CCC2C2(C)CCCC(C)(C)C12` (stereo not drawn) [Compound 3, Suberitenone F], for which the antifungal activity result in data set [4] was “inactive”. In data set [3], this molecule displayed a CC50 at 24 h of 36 ± 5.3 µM. In data set [2], the “activity against RSV (in words)” value is on record as “active”, the “Selectivity Index” value was found to be 3.7 and the EC50 stood at 9.8 µM. The concentration for half-maximal inhibition (IC50) in data set [2] (setting [9]) was determined as 9.8 ± 1.4 µM. Further, the antibacterial activity result in data set [5] was “inactive”.

Take `CC(=O)O[C@@H]1C[C@@]2(C)C(=O)C([C@H]3CC(=O)C(C)=C[C@H]3O)=CCC2[C@@]2(C)CCCC(C)(C)C12` (stereo partly drawn) [Compound 4, Suberitenone G]: the “stability in CDCl3” value in data set [6] is given as “decomposition was observed”. This molecule registered a CC50 at 24 h in data set [3] of 40.7 ± 8.3 µM. For the same molecule, in data set [2], the “Selectivity Index” value turned out to be 3.7 and the EC50 is 11 µM. Also, the IC50 in data set [2] (setting [9]) is 11 ± 1.3 µM.

With `COC1C(C)C(=O)CC(C2(O)CCC3C(C)(CC(OC(C)=O)C4C(C)(C)CCCC43C)C2)C1O` (stereo not drawn) [Compound 5, Suberitenone H], the CC50 at 24 h in data set [3] turned out to be 51.1 ± 17.5 µM. In data set [2], the “Selectivity Index” value came to 4.7 and the half-maximal effective concentration (EC50) worked out at 10.9 µM. Moreover, the IC50 in data set [2] (setting [9]) worked out at 10.9 ± 1.8 µM.

In the case of `CC(=O)OC1CC2(C)C=C(C3CC(=O)C(C)=CC3O)CCC2C2(C)CCCC(C)(C)C12` (stereo not drawn) [Compound 10, suberitenone A], in data set [4], the antifungal activity entry is “inactive”. This molecule came in with a cytotoxic concentration (CC50) at 24 h in data set [3] of 33.3 ± 1.3 µM. Further, in data set [2], the “activity against RSV (in words)” value is reported as “active”, the “Selectivity Index” value is 4.3 and the EC50 stood at 7.9 µM. Also, the IC50 in data set [2] (setting [9]) came to 7.8 ± 0.2 µM. The IC50 in data set [2] (setting [10]) amounted to 7.9 µM. Moreover, the antibacterial activity entry in data set [5] was “inactive”.

Turning to `CC(=O)OC1CC2(C)CC(O)(C3CC(=O)C(C)=CC3O)CCC2C2(C)CCCC(C)(C)C12` (stereo not drawn) [Compound 11, suberitenone B], the antifungal activity result in data set [4] was “inactive”. The molecule also came in with a CC50 at 24 h in data set [3] of 67.6 ± 16.3 µM. In data set [2], the “activity against RSV (in words)” value was “active”, the “Selectivity Index” value is recorded as 21.1 and the concentration giving a half-maximal response (EC50) turned out to be 3.5 µM. Also, the IC50 in data set [2] (setting [9]) was found to be 3.2 ± 0.4 µM. Besides, the IC50 in data set [2] (setting [10]) turned out to be 3.5 µM. For the same molecule, the antibacterial activity entry in data set [5] is “inactive”.

anvilone A: the HIV gene expression entry in data set [7] was “turned on HIV gene expression”.

As to isosuberitenone B, the “cytotoxicity against a panel of tumor cell lines” value in data set [1] is on record as “weak cytotoxicity”.

On to oxaspirosuberitenone, for which the “antibacterial activity against MRSA” value in data set [8] is on record as “mild antibacterial activity”.
